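Method: 48-hour compound exposure of cells in 96-well plates, five concentrations, linear interpolation of endpoints. At the GI50, growth is halved.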 Active and inactive are the calls of the source. Cut-off read from the data, not from the text of the source: active = GI50 up to about 1.1 µM and inactive = higher.

Some test systems named below: NCI-H522; HL-60; HOP-92; RPMI-8226; UACC-62; COLO 205; MOLT-4; U-251; SK-MEL-2; SK-MEL-5; A498; M19-MEL; NCI-H460; RXF 393; OVCAR-3; SW-620; HCT-15.
Holding throughout (assay): inhibition of tumour cell growth, NCI panel, 48 h

On to `CCCCCCCCCC1CC(=O)OC23CCCC(=O)C12O3` (stereo unspecified), for which the GI50 with NCI-H522 was 94.6 µM (inactive); in the assay on HL-60, 26.7 µM (inactive); in the assay on HOP-92, > 100 µM (inactive); with RPMI-8226, > 100 µM (inactive); in the assay on UACC-62, 80 µM (inactive); in the assay with COLO 205, > 100 µM (inactive). Besides, the GI50 in the assay on MOLT-4 is 26.7 µM (inactive); in the assay with U-251 it was 97.1 µM (inactive); in the assay with SK-MEL-2, > 100 µM (inactive); in the assay with SK-MEL-5, 74.5 µM (inactive); in the assay on A498, 71.9 µM (inactive); with M19-MEL, > 100 µM (inactive). In addition, the GI50 with NCI-H460 was > 100 µM (inactive); in the assay with RXF 393, > 100 µM (inactive); in the assay with OVCAR-3, > 100 µM (inactive); in the assay on SW-620 it was > 100 µM (inactive); in the assay on HCT-15 it was 84.9 µM.

For `O=S(=O)(c1ccccc1)C1CN2OC1(S(=O)(=O)c1ccccc1)CC21CCCCC1` (stereo unspecified), the GI50 with NCI-H522 was 51.5 µM (inactive); in the assay with HL-60, 44.9 µM (inactive); in the assay on RPMI-8226 it was 86.1 µM (inactive); in the assay on UACC-62, > 100 µM (inactive); in the assay on COLO 205 it was > 100 µM (inactive); in the assay with MOLT-4 it was 40.7 µM (inactive). Further, the GI50 was > 100 µM (inactive) with U-251; > 100 µM (inactive) in the assay with SK-MEL-2; > 100 µM (inactive) in the assay on M19-MEL; 92.5 µM (inactive) with NCI-H460; 77.1 µM (inactive) with RXF 393; > 100 µM (inactive) in the assay on OVCAR-3. Further, the figures for the GI50 in the assay on SW-620 and in the assay with HCT-15 were > 100 µM (inactive) and > 100 µM, respectively.

On to `CC(C)(C)C1CCC(CI)(N=[N+]=[N-])CC1` (stereo unspecified), for which the GI50 with NCI-H522 is > 100 µM (inactive); in the assay on HL-60, 42.8 µM (inactive); with HOP-92 it was > 100 µM (inactive); with RPMI-8226 it was 79.1 µM (inactive); in the assay on UACC-62 it was > 100 µM (inactive); with COLO 205, > 100 µM (inactive). The GI50 in the assay with MOLT-4 was > 100 µM (inactive); in the assay with U-251, > 100 µM (inactive); with SK-MEL-2, 61.1 µM (inactive); in the assay on SK-MEL-5, > 100 µM (inactive); in the assay on A498 it was > 100 µM (inactive); in the assay on M19-MEL it was 99.1 µM (inactive). For the same molecule, the GI50 in the assay with NCI-H460 is > 100 µM (inactive); in the assay on RXF 393, > 100 µM (inactive); in the assay with OVCAR-3, > 100 µM (inactive); in the assay with SW-620 it was > 100 µM (inactive); in the assay with HCT-15 it was > 100 µM.

Turning to `Nc1ccccc1C(=O)C(Br)C(Br)c1ccc2c(c1)OCO2` (stereo unspecified), the GI50 was 18.5 µM (inactive) in the assay on NCI-H522; 40.7 µM (inactive) in the assay on HL-60; 15 µM (inactive) in the assay with HOP-92; 33.7 µM (inactive) in the assay on RPMI-8226; 16.8 µM (inactive) in the assay on UACC-62; 14.2 µM (inactive) with COLO 205. Also, the GI50 in the assay with MOLT-4 was 25.1 µM (inactive); with U-251, 21.6 µM (inactive); in the assay with SK-MEL-2 it was 16.9 µM (inactive); in the assay on A498, 24.4 µM (inactive); in the assay with M19-MEL, 17.8 µM (inactive); with NCI-H460, 18.6 µM (inactive). The GI50 in the assay with RXF 393 was 19.7 µM (inactive); with OVCAR-3, 16.7 µM (inactive); in the assay with SW-620, 32.6 µM (inactive); with HCT-15, 20.8 µM.

On to `O=C1OC(c2ccc(Cl)c3ccccc23)c2ccccc21` (stereo unspecified), for which the GI50 in the assay on NCI-H522 is > 100 µM (inactive); in the assay on HL-60 it was > 100 µM (inactive); in the assay with HOP-92, > 100 µM (inactive); in the assay with RPMI-8226, > 100 µM (inactive); with UACC-62, 63.2 µM (inactive); in the assay with COLO 205, > 100 µM (inactive). Also, the GI50 in the assay with MOLT-4 is 77.6 µM (inactive); in the assay with U-251, > 100 µM (inactive); with SK-MEL-2, > 100 µM (inactive); with SK-MEL-5, > 100 µM (inactive); in the assay on A498 it was > 100 µM (inactive); with M19-MEL, > 100 µM (inactive). Moreover, the GI50 in the assay with NCI-H460 is > 100 µM (inactive); in the assay on RXF 393, 26.1 µM (inactive); in the assay with HCT-15, 90.4 µM.

For `COc1ccc2c(c1)CCC(OS(=O)(=O)CC13CCC(CC1=O)C3(C)C)C2=O` (stereo unspecified), the GI50 in the assay on NCI-H522 was 25.2 µM (inactive); in the assay on HL-60 it was 18.5 µM (inactive); in the assay on HOP-92 it was 31.8 µM (inactive); in the assay with RPMI-8226, 19.7 µM (inactive); in the assay with UACC-62 it was 16.9 µM (inactive); with COLO 205 it was 33.7 µM (inactive). For the same molecule, the GI50 in the assay on MOLT-4 was 20.8 µM (inactive); with U-251, 21.9 µM (inactive); in the assay on SK-MEL-2 it was 23.9 µM (inactive); with SK-MEL-5 it was 17.5 µM (inactive); in the assay on A498 it was 14.8 µM (inactive); with M19-MEL, 34.2 µM (inactive). Also, the GI50 with NCI-H460 was 18.1 µM (inactive); with OVCAR-3, 25.7 µM (inactive); in the assay with SW-620, 26.4 µM (inactive); in the assay with HCT-15, 26.7 µM.

On to `N#CC(C(=O)/C(=N/NC(=O)c1ccccc1O)C(C#N)c1ccc(Cl)cc1)c1ccc(Cl)cc1` (stereo unspecified), for which the GI50 in the assay on NCI-H522 was > 10 µM (inactive); in the assay with HL-60, 15.5 µM (inactive); in the assay with RPMI-8226 it was 15.8 µM (inactive); with COLO 205, 29.9 µM (inactive); in the assay with MOLT-4 it was > 10 µM (inactive); in the assay on U-251, 10.6 µM (inactive). In addition, the GI50 in the assay on SK-MEL-2 is 16.5 µM (inactive); with A498, 11.9 µM (inactive); in the assay on M19-MEL, 14.1 µM (inactive); with NCI-H460 it was 15.7 µM (inactive); in the assay with RXF 393, 4.05 µM (inactive); in the assay with OVCAR-3, 20 µM (inactive). Further, the GI50 was 15.2 µM (inactive) in the assay on SW-620 and 15.3 µM in the assay with HCT-15.

As for `CCN(CC)CCNc1ccc2nnn3c4ccc(C)cc4c(=O)c1c23`, the GI50 was 7.67 µM (inactive) in the assay with NCI-H522; 3.9 µM (inactive) with HL-60; 6.55 µM (inactive) in the assay on HOP-92; 4.62 µM (inactive) with RPMI-8226; 14 µM (inactive) in the assay with UACC-62; 5.87 µM (inactive) in the assay on COLO 205. Also, the GI50 is 3.07 µM (inactive) with MOLT-4; 11.5 µM (inactive) with U-251; 13.7 µM (inactive) in the assay with SK-MEL-2; 10.7 µM (inactive) in the assay with SK-MEL-5; 15.5 µM (inactive) in the assay with A498; 14.6 µM (inactive) in the assay with M19-MEL. In addition, the GI50 is 3.85 µM (inactive) with NCI-H460, 13.2 µM (inactive) in the assay on OVCAR-3, 4.63 µM (inactive) in the assay with SW-620 and 9.62 µM in the assay on HCT-15.

Regarding `N#CCCN(CCC#N)c1ccc(/C=C(/NC(=O)c2cc([N+](=O)[O-])ccc2Cl)C(=O)N=[N+]=[N-])cc1`, the GI50 with NCI-H522, with HL-60, with RPMI-8226, in the assay with UACC-62, in the assay on COLO 205 and in the assay with MOLT-4 was > 100 µM (inactive) in each case. Also, the GI50 in the assay with U-251, with SK-MEL-2, with SK-MEL-5, in the assay with A498, in the assay with M19-MEL and in the assay with NCI-H460 was > 100 µM (inactive) each time. In addition, the GI50 with RXF 393 was > 100 µM (inactive); with OVCAR-3, > 100 µM (inactive); with SW-620, > 100 µM (inactive); with HCT-15, > 100 µM.

With `COc1ccc2c(c1)C1C(CO2)C(c2ccccc2)=NN1c1ccccc1` (stereo unspecified), the GI50 was > 100 µM (inactive) with NCI-H522; 99.5 µM (inactive) with HL-60; > 100 µM (inactive) in the assay on HOP-92; 48.1 µM (inactive) in the assay on RPMI-8226; > 100 µM (inactive) in the assay with COLO 205; 94.8 µM (inactive) in the assay with MOLT-4. The GI50 in the assay on U-251, with SK-MEL-2, in the assay with SK-MEL-5, in the assay on A498, with M19-MEL and in the assay with NCI-H460 was > 100 µM (inactive) in each case. The GI50 in the assay on RXF 393 is 35.6 µM (inactive); in the assay on OVCAR-3, > 100 µM (inactive); with SW-620 it was > 100 µM (inactive).

Consider `CCOc1ccc(/C=C(\Cl)c2ccc(OC)c(OC)c2)cc1`, for which the GI50 in the assay on NCI-H522 is 19.2 µM (inactive); in the assay on HL-60, 21.8 µM (inactive); with HOP-92, 55.3 µM (inactive); in the assay on RPMI-8226, 20 µM (inactive); in the assay with UACC-62, 20.5 µM (inactive); in the assay on COLO 205, 48.2 µM (inactive). Further, the GI50 with MOLT-4 is 26.2 µM (inactive); in the assay on U-251, > 100 µM (inactive); in the assay on SK-MEL-5, 26.5 µM (inactive); with A498, 27.6 µM (inactive); with M19-MEL, 37.4 µM (inactive); in the assay on RXF 393, 12.4 µM (inactive). Also, the GI50 in the assay with SW-620 was 50.6 µM (inactive); with HCT-15, 20.9 µM.

In the case of `COC(=O)C1CC/C(=N/C2c3ccccc3-c3ccccc32)N1` (stereo unspecified), the GI50 in the assay with NCI-H522 was 19.6 µM (inactive); with HL-60, > 100 µM (inactive); in the assay on HOP-92, 14.1 µM (inactive); in the assay on RPMI-8226 it was 61.5 µM (inactive); with UACC-62, 63 µM (inactive); in the assay with COLO 205, 47.8 µM (inactive). For the same molecule, the GI50 with MOLT-4 is 24.2 µM (inactive); in the assay on U-251, > 100 µM (inactive); in the assay with SK-MEL-2 it was > 100 µM (inactive); in the assay with A498 it was > 100 µM (inactive); in the assay on M19-MEL, > 100 µM (inactive); with NCI-H460, 32.7 µM (inactive). Besides, the figures for the GI50 in the assay with OVCAR-3, in the assay with SW-620 and with HCT-15 were 74.8 µM (inactive), > 100 µM (inactive) and > 100 µM, respectively.

As for `COc1cc2c(cc1OC)C(O)[C@H](Br)C(C)(C)O2` (stereo partly specified), the GI50 in the assay with NCI-H522, in the assay on HL-60, with HOP-92, in the assay on RPMI-8226, in the assay with UACC-62 and in the assay with COLO 205 was > 100 µM (inactive) in each case. Also, the GI50 in the assay with MOLT-4, with U-251, in the assay on SK-MEL-2, in the assay with SK-MEL-5, in the assay on M19-MEL and in the assay on NCI-H460 was > 100 µM (inactive) in each case. Also, the GI50 with RXF 393 is > 100 µM (inactive); in the assay on OVCAR-3, > 100 µM (inactive); in the assay on SW-620 it was > 100 µM (inactive); in the assay with HCT-15 it was > 100 µM.
